# Tested on: C-reactive protein
# Assay: Randomized, double-blind, placebo controlled, forced dose-escalation, multicenter study; hs-CRP blood levels
# Assay type: in vivo, human
# From the text: The study was a randomized, double-blind, placebo controlled, forced dose-escalation, multicenter study.
# Inclusion Criteria • Patients were at least 18 years of age and ≤80 years of age at the time of informed consent; • Women of childbearing potential must have a negative urine pregnancy test at screening and visit 4.
# Exclusion Criteria • Patients who were pregnant, planning to become pregnant during the study, or nursing • Patients who had with clinically significant electrocardiographic abnormalities at visit 1 or visit 4; • Patients who had body mass index>45 kg/m2 at visit 1; • Patients who had weight change of >5% of initial body weight between visits 1 and 4 (randomization); • Patients who had poorly controlled diabetes defined as a hemoglobin A1c>9.5% prior to visit 4 (randomization); • Patients who had evidence of hepatic disease (ALT or AST greater than 2.0 ULN, bilirubin greater than 1.5 ULN, or cirrhosis) at visit 1; • Patients who had renal dysfunction defined as glomerular filtration rate (GFR)<60 mL/min/1.73 m2 at visit 1; • Patients who had hypothyroidism that was not treated or not stable for at least 6 months prior to study entry; • Patients who had poorly controlled hypertension defined as a mean systolic blood pressure above 160 mm Hg and/or diastolic blood pressure above 100 mmHg at visit 1.
# Following signature of informed consent, 164 patients received 1000 mg placebo three times daily with meals in a single-blind manner for a dietary-controlled baseline period of 6 to 8 weeks. From the sample of eligible subjects who completed the 6 to 8 week dietary-controlled baseline period, 71 subjects (22 received placebo and 49 received 1-MNA chloride) meeting all inclusion and no exclusion criteria were randomized in a double-blind manner ([…]) to the treatment arm. The treatment periods were: weeks 1 and 2 two 500 mg tablets administered three times daily with meals (total daily dose 3000 mg); weeks 3 to 14 two 1000 mg tablets administered three times daily with meals (total daily dose 6000 mg). Down titration to 3000 mg daily was allowed in the event that a subject could not tolerate the 6000 mg daily treatment for the stipulated period. Under this scenario, the down-titrated subject remained on the tolerated dose for the duration of the trial. hs-CRP blood levels were evaluated during the baseline period, upon randomization and throughout the active treatment period. All blood samples were collected following a 12-hour fast. Throughout the study, the subjects were required to adhere to a heart-healthy diet and abstain from/minimize ethyl alcohol intake. Safety and tolerability were assessed throughout the trial through the evaluation of physical exams, electrocardiograms, routine hematology ad blood chemistry testing, vital signs and adverse events.
# In the analysis, adjusted geometric mean percent change was obtained by exponentiating the adjusted mean from the ANCOVA model, then subtracting 1 and multiplying by 100. Bounds of the 95% confidence intervals were obtained similarly. Based on the ANCOVA model of the change in log-transformed CRP including treatment group and log-transformed baseline value, the change in CRP level in blood in this study was approximately −17% relative to placebo.
# [1] = end of study, oral 3000 mg daily weeks 1-2, 6000 mg daily weeks 3 to 14, n 45
structure (smiles),measurement,setting,value
"C[n+]1cccc(C(N)=O)c1 [1-MNA chloride, 1-methylnicotinamide]",Lowering of blood or serum CRP level from baseline,"baseline to end of study, 3000 then 6000 mg daily, 14 weeks",about 16%
same,Adjusted geometric mean percent change from baseline in C-reactive protein,"baseline to end of study, ANCOVA on log-transformed CRP, 3000 then 6000 mg daily, 14 weeks",−15.66%
same,"C-reactive protein, Baseline, Geometric mean","baseline, before double-blind treatment, n 49",2.9 mg/L
same,"C-reactive protein, Baseline, Mean ± SD","baseline, before double-blind treatment, patients with serum triglycerides 200-500 mg/dL, n 49",4.0 ± 5.4 mg/L
same,"C-reactive protein, End of study, Geometric mean",[1],2.4 mg/L
same,"C-reactive protein, End of study, Mean ± SD",[1],3.3 ± 3.2 mg/L
same,"C-reactive protein, Change from baseline to end of study, Mean ± SD","oral 3000 mg daily weeks 1-2, 6000 mg daily weeks 3 to 14, n 45",-0.8 ± 4.7 mg/L

# Reference: patent US20190282560A1, “1-Methylnicotinamide for the Treatment of Diseases Associated With C-Reactive Protein” (Pharmena S.A., priority 2016, published 2019)
